This is an account of results in US4929736A, “Latent isocynate derivatives useful for deactivating enzymes” (Board of Trustees of the Wichita State University, priority 1986, dated 1990).

The target of series [1] is alpha-Chymotrypsin (Bos taurus, UniProt P00766). Nature of the series: Inactivation of chymotrypsin. To be noted: for Inhibition of chymotrypsin (in words): comparable conditions. The format is biochemical.
Series [2] has as its target Porcine pancreatic elastase (PPE) (Sus scrofa, UniProt P00772). Nature of the series: Spectrophotometric assay of PPE inactivation (in vitro). It counts as biochemical. The note with it: for kinact/KI: Table I azolides, read-out: Porcine pancreatic elastase k3 /Ki. On the procedure:
The enzyme assays used to evaluate the potency of the inhibitors in vitro were performed as follows: PPE was assayed spectrophotometrically at 347.5 nm with (tert-butoxycarbonyl)-alanyl-p-nitrophenol in 0.05 M phosphate buffer, pH 6.5, 25° C., or by using succinyl-L-trialanyl-p-nitroanilide in 0.1 M Tris buffer, pH 8.0, at 410 nm. HLE was assayed spectrophotometrically at 410 nm with succinyl-L-trialanyl-p-nitroanilide or methoxy succinyl ala-ala-pro-val-p-nitroanilide (As describe by K. Wakajima et al in the J. Biol. Chem, 254, 4027-4032 (1979) and T. Teshima et al, in J. Biol. Chem 257, 5085-5091 (1982). The potency of an inhibitor is determined by obtaining a kinetic determination of the bimolecular rate constant K3 /Ki (or Robsd /[I]). The HLE used in these studies may be obtained from Elastin Products, St. Louis, Mo.) in 0.1 M Tris buffer, pH 8.0.
The appropriate amount of inhibitor in acetonitrile was mixed with PPE in phosphate buffer solution and placed in a constant temperature bath. Aliquots were withdrawn at different time intervals and transferred to a cuvette containing 100 uL of substrate, 140 uL of acetonitrile, and 2 mL of phosphate buffer, pH 6.5. After incubating for 30 seconds, the absorbance change was monitored for two minutes at 347.5 nm. The inhibitor-to-enzyme ratios varied between 50 and 200, and the incubation intervals were shortened or lengthened depending upon the potency of the inhibitor. Controlled reactions for 100% PPE activity were run in the presence of acetonitrile. A similar procedure was followed for HLE.
The reaction of an irreversible inhibitor with PPE and HLE may be illustrated by the scheme shown below: [drawing 5] where EI is the noncovalently bound enzyme-inactivator complex and E-I is the final product with the inhibitor covalently bound to the enzyme. The kinetics data were analyzed according to known procedures. The apparent pseudo-first-order inactivation rate constants were determined from the slopes of semilogarithmic plots of enzymatic activity remaining versus time using the following equation: [formula] where Et /EO is the amount of active enzyme remaining after time "t". Inhibition is generally expressed in terms of k3 /Ki, M^-1 s^-1, wherein Ki is the disassociation constant for the enzyme inhibitor complex and k3 is a limiting rate constant for the irreversible loss of enzymatic activity.
Table I below illustrates the inhibition found with assays of nine amino-acid-derived azolides against PPE and HLE.

Series [3] has as its target T1, Human leukocyte elastase (HLE) (Homo sapiens, UniProt P08246).
T1 construct: purchased Elastin Products, St. Louis, Mo
T1 sequence (P08246 30-267): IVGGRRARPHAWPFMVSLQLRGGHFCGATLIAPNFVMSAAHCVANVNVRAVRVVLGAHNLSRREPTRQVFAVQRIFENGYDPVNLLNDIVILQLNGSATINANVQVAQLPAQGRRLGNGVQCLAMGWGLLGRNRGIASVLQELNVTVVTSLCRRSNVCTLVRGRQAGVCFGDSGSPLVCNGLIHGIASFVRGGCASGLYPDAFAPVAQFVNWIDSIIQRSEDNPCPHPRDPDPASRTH
Nature of the series: Spectrophotometric assay of HLE inactivation (in vitro). It counts as biochemical. The protocol:
The appropriate amount of inhibitor in acetonitrile was mixed with PPE in phosphate buffer solution and placed in a constant temperature bath. Aliquots were withdrawn at different time intervals and transferred to a cuvette containing 100 uL of substrate, 140 uL of acetonitrile, and 2 mL of phosphate buffer, pH 6.5. After incubating for 30 seconds, the absorbance change was monitored for two minutes at 347.5 nm. […] Controlled reactions for 100% PPE activity were run in the presence of acetonitrile. A similar procedure was followed for HLE.
The reaction of an irreversible inhibitor with PPE and HLE may be illustrated by the scheme shown below: [drawing 5] where EI is the noncovalently bound enzyme-inactivator complex and E-I is the final product with the inhibitor covalently bound to the enzyme. The kinetics data were analyzed according to known procedures. The apparent pseudo-first-order inactivation rate constants were determined from the slopes of semilogarithmic plots of enzymatic activity remaining versus time using the following equation: [formula] where Et /EO is the amount of active enzyme remaining after time "t".
The assay procedure used was the procedure identified relative to the tests above in Table I.
(kobsd) were determined by plotting in [E]t /[E]o vs time.

For series [4], the system named is PPE. To be noted: cited from earlier work; for Irreversible inhibition of PPE (in words): 183rd ACS National Meeting, 1982.
Series [5] can be described thus: Inactivation of S-ethylcysteine sulfonate salt by oxidants / hydrolysis in buffer. The format is physicochemical. The source says:
In addition, compound 3, Table VI, was exposed to oxidants in vitro and the rates of its inactivation with chloramine-T and H2 O2 compared to buffer alone are summarized in Table VII below. […] The observed rates of inhibitor inactivation are 6 to 12 fold smaller than the rate at which the inhibitor inactivates the enzyme.

Setting [6] is: Table I azolides, read-out: Human leukocyte elastase k3 /Ki.

Entries after “also recorded” stand apart in the source; their conditions may differ. Read-outs that look alike come from different tables or passages of the source.

Chain of Porcine pancreatic elastase (PPE) (P00772 27-266): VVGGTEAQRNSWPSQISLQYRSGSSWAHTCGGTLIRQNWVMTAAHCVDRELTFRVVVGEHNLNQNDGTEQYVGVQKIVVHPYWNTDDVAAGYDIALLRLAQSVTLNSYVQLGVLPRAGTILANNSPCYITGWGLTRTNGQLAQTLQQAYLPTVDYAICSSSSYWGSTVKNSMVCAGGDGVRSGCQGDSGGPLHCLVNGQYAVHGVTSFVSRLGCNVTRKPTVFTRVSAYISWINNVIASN

For `CS(=O)(=O)ON1C(=O)CC(Cc2ccccc2)C1=O` (racemic) [BENZYL, OSO2 CH3, (dl)-3-Benzyl-N-(methanesulfonyloxy) succinimide], the kinact/KI in series [1] (Table V footnote a, read-out: kobsd /[I], alpha-Chymotrypsin) was found to be 9000 M⁻¹ s⁻¹; in series [3] (Table V, succinimide derivatives, read-out: kobsd /[I], inhibition of leukocyte elastase), 1170 M⁻¹ s⁻¹. In series [1], the “Inhibition of chymotrypsin (in words)” value is “efficiently inactivated”. Moreover, the “Inhibition of PPE (in words)” value in series [2] is reported as “unaffected”.

Turning to `COC(=O)[C@H](CC(C)C)NC(=O)n1ccnc1` [Compound 7, Table I], in series [2], the kinact/KI stood at 0.5 M⁻¹ s⁻¹. For the same compound, in series [3], the “Inhibition of HLE (in words)” value is given as “highly effective”.

For `COC(=O)[C@H](NC(=O)n1ccnc1)C(C)C` [Compound 4, Table I], the “Irreversible inhibition of PPE (in words)” value (“Irreversible inhibition” for short) in series [4] is listed as “marginal activity”.

On to `CCSC[C@H](NC(=O)S(=O)(=O)O)C(=O)OC` [Compound 3, Table VI], for which the “kobsd, inactivation of inhibitor” value in series [5] (Chloramine T (0.06 mM), first line) is 6.6 × 10^-4 sec ^-1; in series [5] (Chloramine T (0.06 mM), second line), 3.2 × 10^-3 sec ^-1; in series [5] (H2O2 (1 mM)) it was 1.2 × 10^-3 sec ^-1; in series [5] (Triss buffer, pH 8.0 (0.2 M)), 5.8 × 10^-4 sec ^-1. Moreover, the “half life of hydrolysis in buffer solution” value in series [5] (buffer, pH 8.0) is listed as “twenty”. In series [5] (chloramine-T and H2O2), the “scavenging of oxidants (in words)” value is “scavenged by the inhibitor in a time dependent and efficient fashion”. Moreover, the “half life with addition of oxidants (in words)” value in series [5] (chloramine-T, H2O2) is reported as “shorter half lives”. Moreover, in series [3] (Table VI, sulfur-containing amino acid esters, read-out: kobsd /[I], inhibition of HLE), the kinact/KI turned out to be 1800 M⁻¹ s⁻¹.

For the compound `CCCCC(NC(=O)n1ccnc1)C(=O)OC` (stereo not drawn) [Compound 9], the “Inhibition of PPE (in words)” value in series [2] is listed as “little for PPE”. The “Inhibition of HLE (in words)” value in series [3] is on record as “effective inhibitors; also recorded: avidity for HLE”.

As to `CCCCC(NC(=O)n1ccnc1)C(=O)OC` (racemic) [Compound 9, Table I], the kinact/KI in series [2] worked out at 2.2 M⁻¹ s⁻¹; in series [3] (setting [6]), 167 M⁻¹ s⁻¹.

In the case of `COC(=O)[C@H](C)NC(=O)n1ccnc1` [Compound 2], the “Inhibition of PPE (in words)” value in series [2] is on record as “marginal inhibitory activity”. Moreover, in series [3], the “Inhibition of HLE (in words)” value is given as “marginal inhibitory activity”.

For `CCC[C@H](NC(=O)S(=O)(=O)O)C(=O)OC` [Compound 4, Table II], the “Inhibition of chymotrypsin (in words)” value in series [1] was “no effect”. For the same compound, the “Inhibition of PPE (in words)” value in series [2] is “no effect”. Moreover, in series [3] (Table II monopotassium sulfonate salts, read-out: k2 /Ki (HLE)), the kinact/KI came out at 860 M⁻¹ s⁻¹. For the same compound, the “Inhibition of HLE (in words)” value in series [3] (listed as L-norvaline sulfonate salt) was “very potent inhibitors; also recorded: effective inhibitors”.

Consider `COC(=O)CNC(=O)n1ccnc1` [Compound 1], for which the “Inhibition of PPE (in words)” value in series [2] is given as “failed to deactivate”. Besides, in series [3], the “Inhibition of HLE (in words)” value is given as “failed to deactivate”.

`CCOC(=O)CNC(=O)n1ccnc1` [glycine ethel ester derivative]: the “Irreversible inhibition” value in series [4] was “inactive”.

For the compound `COC(=O)[C@@H](NC(=O)n1ccnc1)C(C)C` [Compound 3, Table I], in series [4], the “Irreversible inhibition” value is recorded as “Particularly active”. Besides, the kinact/KI in series [2] came to 2.8 M⁻¹ s⁻¹; in series [3] (setting [6]) it was 193 M⁻¹ s⁻¹. Further, in series [3] (listed as L-valine azolide), the “Inhibition of HLE (in words)” value is “highly effective”.

Regarding `CCC[C@H](NC(=O)n1ccnc1)C(=O)OC` [Compound 5], the “Inhibition of PPE (in words)” value in series [2] is on record as “little for PPE”. Further, the kinact/KI in series [2] was found to be 6.3 M⁻¹ s⁻¹; in series [3] (setting [6]) it was 500 M⁻¹ s⁻¹. The “Inhibition of HLE (in words)” value in series [3] was “effective inhibitors; also recorded: avidity for HLE”.

`CCCC(NC(=O)n1ccnc1)C(=O)OC` (racemic) [DL-norvaline methyl ester derivative]: in series [4], the “Irreversible inhibition” value is reported as “Particularly active”.

With `CCCCNC(=O)n1ccnc1` [n-butyl derivative], the “Inhibition of PPE (in words)” value in series [4] (Biochem. Biophys. Res. Commun. report (1980)) is given as “particularly capable of binding to the active site of the enzyme”.

As to `COC(=O)[C@@H](NC(=O)n1ccnc1)C(C)C` [Compound 3], the “Inhibition of PPE (in words)” value in series [2] was “poor inhibitor; also recorded: little for PPE”. Also, the “Inhibition of HLE (in words)” value in series [3] was “excellent inhibitor; also recorded: avidity for HLE”.

On to `CCC(C)[C@H](NC(=O)n1ccnc1)C(=O)OC` (stereo partly drawn) [Compound 8, Table I], for which the kinact/KI in series [2] is 1 M⁻¹ s⁻¹.

Regarding `COC(=O)[C@H](NC(=O)n1ccnc1)C(C)C` [Compound 4], the “Inhibition of PPE (in words)” value in series [2] was “no effect”. Further, the “Inhibition of HLE (in words)” value in series [3] is “no effect”.

In the case of `CS(=O)(=O)ON1C(=O)CCC1=O` [H, OSO2CH3], in series [3] (Table V, succinimide derivatives), the “kobsd /[I], inhibition of leukocyte elastase” value is “inactive”.

As to `COC(=O)[C@H](CCSC)NC(=O)n1ccnc1` [N-(1H-imidazol-1-ylcarbonyl)-methionine methyl ester], in series [2], the “Inhibition of PPE (in words)” value is on record as “unaffected”. The “Inhibition of HLE (in words)” value in series [3] was “remarkable specificity and high potency”; in series [3] (listed as methionine azolide), “highly effective”.

As to `COC(=O)[C@H](Cc1ccccc1)NC(=O)ON1C(=O)CCC1=O` [Compound 30], the kinact/KI in series [3] (Table IV, derivatives of phenylalanine, read-out: kobsd /[I], inhibition of leukocyte elastase) came out at 6640 M⁻¹ s⁻¹.

Consider `CC[S+]([O-])C[C@H](NC(=O)S(=O)(=O)O)C(=O)OC` (stereo partly drawn) [Compound 4, Table VI], for which the “Inhibition of HLE (in words)” value in series [3] was “inactive”. In addition, the “kobsd /[I], inhibition of HLE” value in series [3] (Table VI, sulfur-containing amino acid esters) was “inactive”.

In the case of `O=C(NCCc1cccc(C(F)(F)F)c1)n1ccnc1` [Compound 20], the kinact/KI in series [3] (Table III, inactive: no inhibition at 243fold excess of inhibitor over enzyme, 10min incubation, read-out: kobsd /[I], inhibition of leukocyte elastase) was 483 M⁻¹ s⁻¹.
